Values of other authors in patent US20020051978A1, “Methods and compositions for the identification, assessment, prevention and therapy of human cancers” (priority 2000, published 2002).
Structures can show the parent of a compound that is named as a salt. Where two headings read alike, the source gives them in different places.

Tested on: 60 cancer cell lines (NCI 60 cancer cell line series)
Conditions: cited from earlier work

Measured: -Log (GI50)

CC[C@]1(O)C[C@H]2CN(CCc3c([nH]c4ccccc34)[C@@](C(=O)OC)(c3cc4c(cc3OC)N(C=O)[C@H]3[C@@](O)(C(=O)OC)[C@H](OC(C)=O)[C@]5(CC)C=CCN6CC[C@]43[C@@H]65)C2)C1 [Vincristine sulfate]
6.8: CNS SF-268 CL12014 | Melanoma UACC-257 (CL10021) | NSCLC HOP-62 (CL1026) | Renal ACHN CL9023
5.7: NSCLC EKVX (CL1008) | Renal TK10 CL9024 | Renal UO-31 CL9004
4.7: Ovarian OVCAR-5 CL6003
5.9: Breast BT-549 (CL5013)
3.8: Breast T-47D (CL5014)
6.7: Breast MDA-MB-435 (CL5011)
6.1: Breast MCF7/ADRr (CL5002)
6.6: Breast MDA-MB-231 CL5005 | Breast MDA-N CL5012 | Melanoma MALME-3M CL10002 | Ovarian SK-OV-3 CL6011 | Prostate PC-3(I) CL11001
6.9: Breast MCF7(I) (CL5001) | CNS SNB-19 (CL12002) | CNS U251(I) CL12009 | Colon COLO-250 CL4010 | Colon HCC-2998 (CL4002) | Colon HCT-15 CL4015 | Colon HCT-116 (CL4003) | Colon KM12 (CL4017) | Leukemia MOLT-4 (CL7006) | Leukemia RPMI-8226(I) (CL7010) | Melanoma M14 (CL10014) | Melanoma SK-MEL-2 (CL10005) | Melanoma UACC-62 (CL10020) | NCSLC NCI-H522 CL1003 | NSCLC A549/ATCC (CL1004) | NSCLC HOP-92 (CL1029) | NSCLC NCI-H226 CL1013 | NSCLC NCI-H332M CL1017 | Renal 786-O CL9018 | Renal CAKI-1 CL9015 | Renal RXF-393 CL9016 | Renal SN12C CL9008
7.0: CNS SF-295 CL12015 | CNS SF-539 CL12016 | Colon HT29(I) CL4001 | Colon SW-620 (CL4009) | Leukemia CCRF-CEM(I) (CL7003) | Leukemia HL-60(I) (CL7008) | Leukemia K562(I) CL7005 | Leukemia SR CL7019 | Melanoma LOX IMVI CL10001 | Melanoma SK-MEL-5 (CL10007) | NSCLC NCI-H23(I) CL1001 | NSCLC NCI-H460 CL1021 | Ovarian IGROV1 CL6010 | Ovarian OVCAR-3 CL6001 | Ovarian OVCAR-8 CL6005 | Renal A498 CL9013
6.4: Prostate DU-145 CL11003
6.0: Melanoma SK-MEL-28 (CL10008)
6.5: Breast HS-578T CL5006
6.3: CNS SNB-75(I) CL12005 | Ovarian OVCAR-4 CL6002
